Assay results taken from patent US20070167432A1, “Tricyclic triazolobenzapine derivative produced as novel crystalline substance” (MEIJI SEILA KAISHA, LTD, priority 2003, published 2007).

Legend:
[1] = Absorbability test: oral administration to cynomolgus monkeys, Compound B in blood plasma as indicator; type: in vivo
Protocol: The α-type crystalline material obtained in Comparative Example 1 or the β-type crystalline material obtained in Example 1 was suspended in a 1 wt. % aqueous solution of methyl cellulose. Each suspension was orally administered to a group of cynomolgus monkeys that had not been fed one overnight (5 mg/kg, n=5). The two samples were compared, in terms of the change of Compound B concentration of blood plasma and the area under the medicine concentration in blood plasma-time curve (AUC), to evaluate the difference in absorbability between the samples. The Compound B concentration of blood plasma derived from the blood sample was determined in the following manner.
By centrifugally separating the blood (1 mL) taken from a saphenous vein (4° C., 3000 rpm, 10 minutes) in the presence of heparin, blood plasma was obtained. To this blood plasma (100 μL), a methanol solution containing an internal standard substance (sodium 7-methyl-4(5H),10-dioxo-2H-1,2,3-triazolo [4,5-c][1]benzazepine) (100 ng/mL, 100 μL) and methanol (400 μL) were added, and the mixture was stirred and was then subjected to centrifugal separation (4° C., 10000 rpm, 5 minutes). Methanol (300 μL) was added again to the supernatant, and the mixture was centrifugally separated under the same conditions as the previous manner. […]
Fluorescence detection wavelengths: Ex 270 nm, Em 466 nm […]

[2] = Solubility test in water (37° C.), Compound A concentration of filtrate by HPLC; type: physicochemical
Protocol: By using, as test samples, the β-type crystalline material obtained in Example 1 and the α-type crystalline material obtained in Comparative Example 1, a water (37° C.) solubility test was carried out. The test sample (about 10 mg) was added to 100 mL of water (37° C.), and the mixture was stirred at 1000 rpm. The mixture was sampled at some points of time, and each sample taken out was filtered through a membrane filter (Millex LG-13 manufactured by Millipore Corp, Japan). The compound A concentration of each filtrate was determined with high-performance liquid chromatography (HPLC). The measurement conditions were as follows:
HPLC: LC-10vp series (manufactured by Shimadzu Corp. Japan)
System controller: CBM-10A
Measurement wavelength: 246 nm
Column: Mightysil RP-18 GP 4.6×250 mm (manufactured by Kanto Chemical Co., Inc., Japan)
Column temperature: Fixed temperature at around 40° C.
Mobile phase: Mixture of methanol and water (55:45)
Amount of influent: 10 μL
Internal standard solution: Acetonitrile solution of propyl paraoxybenzoate (conc.200 μg/mL)

Compound | absorption into organisms ([1]; background statement, administered as it is) | solubility in solvents such as water ([2]; background statement from applicant's experiments, solvents such as water) | Compound B concentration of blood plasma compared with the α-type-crystalline-material-administered group ([1]; cynomolgus monkeys, fasted overnight, oral 5 mg/kg, suspension in 1 wt. % aqueous methyl cellulose, n=5, FIG. 6) | water solubility compared with the α-type crystalline material ([2]; water 37° C.)
COc1cc2[nH]c(=O)c3nn(C(OC(=O)OC(C)C)C(C)C)nc3c(=O)c2cc1OC (stereo not drawn) [α-type crystalline material, 2-(1-Isopropoxycarbonyloxy-2-methylpropyl)-7,8-dimethoxy-4(5H),10-dioxo-2H-1,2,3-triazolo[4,5-c][1]benzazepine] | cannot be easily absorbed | sparingly soluble |  | 
COc1cc2[nH]c(=O)c3nn(C(OC(=O)OC(C)C)C(C)C)nc3c(=O)c2cc1OC (stereo not drawn) [β-type crystalline material, 2-(1-Isopropoxycarbonyloxy-2-methylpropyl)-7,8-dimethoxy-4(5H),10-dioxo-2H-1,2,3-triazolo[4,5-c][1]benzazepine] |  |  | higher values | higher
